Results reported in EP0212404A1, “7-oxo-4-thia-1-azabicyclo [3.2.0] hept-2-ene derivatives” (HOECHST AKTIENGESELLSCHAFT, priority 1985, dated 1987).
Values after ≈ are worked out from the molar mass of the structure shown. Read-outs that look alike come from different tables or passages of the source.

Key:
Experiment in all cases: agar dilution test (MIC)
Format in all cases: cell-based
[1] = test system: Bac.subt. ATCC6633; settings: Mueller Hinton agar, 16 to 18 hours at 37°C, read-out: Minimum Inhibitory Concentration (MIC)
Experimental: (§1) The antimicrobial activity was determined by measuring the Minimum Inhibitory Concentration (MIC). The MIC of the compounds was determined by a standard test, the "agar dilution test" according to Lorian (Antibiotics in Laboratory Medicine, Williams and Wilkins, Baltimore/London 1980) as follows:
(§2) A two-fold decreasing concentration series of each compound was prepared in Petri dishes containing 15 ml of Mueller Hinton agar (Difco). One Petri dish containing only the Mueller Hinton agar served as control for bacterial growth. Each Petri dish was inoculated with a multi-point inoculator (Denley), which transferred 0.6µl of a 1:100 diluted 18 hours culture of the appropriate test bacterium. After 16 to 18 hours of incubation at 37°C the Petri dishes were examined for growth of bacteria. The lowest concentration of the compound which causes complete inhibition of growth is taken as the MIC except that the growth of a single colony or a haze is not taken as evidence of qrowth.

[2] = test system: E.coli 055; settings: Escherichia coli, Mueller Hinton agar, 16 to 18 hours at 37°C, read-out: Minimum Inhibitory Concentration (MIC)
Experimental: as §1, §2

[3] = test system: E.coli 1507E; settings: Escherichia coli, read-out: Minimum Inhibitory Concentration (MIC)
Experimental: as §1, §2

[4] = test system: E.coli DC0; settings: Escherichia coli, Mueller Hinton agar, 16 to 18 hours at 37°C, read-out: Minimum Inhibitory Concentration (MIC)
Experimental: as §1, §2

[5] = test system: E.coli DC2; settings: Escherichia coli, Mueller Hinton agar, 16 to 18 hours at 37°C, read-out: Minimum Inhibitory Concentration (MIC)
Experimental: as §1, §2

[6] = test system: E.coli KN126; settings: Escherichia coli, Mueller Hinton agar, 16 to 18 hours at 37°C, read-out: Minimum Inhibitory Concentration (MIC)
Experimental: as §1, §2

[7] = test system: E.coli TEM; settings: Escherichia coli, read-out: Minimum Inhibitory Concentration (MIC)
Experimental: as §1, §2

[8] = test system: Ent.cloacae 1321E; settings: Enterobacter cloacae, read-out: Minimum Inhibitory Concentration (MIC)
Experimental: as §1, §2

[9] = test system: Ent.cloacae P99; settings: Enterobacter cloacae, Mueller Hinton agar, 16 to 18 hours at 37°C, read-out: Minimum Inhibitory Concentration (MIC)
Experimental: as §1, §2

[10] = test system: Kl.aerog. 1082E; settings: Mueller Hinton agar, 16 to 18 hours at 37°C, read-out: Minimum Inhibitory Concentration (MIC)
Experimental: as §1, §2

[11] = test system: Kl.aerog. 1522E; settings: read-out: Minimum Inhibitory Concentration (MIC)
Experimental: as §1, §2

[12] = test system: Staph.aureus 285; settings: Staphylococcus aureus, Mueller Hinton agar, 16 to 18 hours at 37°C, read-out: Minimum Inhibitory Concentration (MIC)
Experimental: as §1, §2

[13] = test system: Staph.aureus 503; settings: Staphylococcus aureus, Mueller Hinton agar, 16 to 18 hours at 37°C, read-out: Minimum Inhibitory Concentration (MIC)
Experimental: as §1, §2

[14] = test system: Staph.aureus SG511; settings: Staphylococcus aureus, Mueller Hinton agar, 16 to 18 hours at 37°C, read-out: Minimum Inhibitory Concentration (MIC)
Experimental: as §1, §2

[15] = test system: Str.faecium D; settings: Enterococcus faecium, read-out: Minimum Inhibitory Concentration (MIC)
Experimental: as §1, §2

[16] = test system: Str.pyogenes 308A; settings: Streptococcus pyogenes, Mueller Hinton agar, 16 to 18 hours at 37°C, read-out: Minimum Inhibitory Concentration (MIC)
Experimental: as §1, §2

[17] = test system: Str.pyogenes 77A; settings: Streptococcus pyogenes, Mueller Hinton agar, 16 to 18 hours at 37°C, read-out: Minimum Inhibitory Concentration (MIC)
Experimental: as §1, §2

[18] = Str.faecium D, Mueller Hinton agar, 16 to 18 hours at 37°C
[19] = E.coli 1507E, Mueller Hinton agar, 16 to 18 hours at 37°C
[20] = Ent.cloacae 1321E, Mueller Hinton agar, 16 to 18 hours at 37°C
[21] = Kl.aerog. 1522E, Mueller Hinton agar, 16 to 18 hours at 37°C

SMILES	MIC [1]	MIC [2]	MIC ([3]; 1507E)	MIC [4]	MIC [5]	MIC [6]	MIC [7]	MIC ([8]; 1321E)	MIC [9]	MIC [10]	MIC [11]	MIC [12]	MIC [13]	MIC [14]	MIC [16]	MIC [17]	MIC [15, 18]	MIC [3, 19]	MIC [8, 20]	MIC [11, 21]	other results
C[C@@H](O)[C@H]1C(=O)N2C(C(=O)O)=C(c3ccccc3)S[C@H]12 [H]	0.1 µg/mL (≈ 0.343 µM)	0.78 µg/mL (≈ 2.68 µM)	1.56 µg/mL (≈ 5.35 µM)	3.12 µg/mL (≈ 10.7 µM)	0.39 µg/mL (≈ 1.34 µM)	3.12 µg/mL (≈ 10.7 µM)	1.56 µg/mL (≈ 5.35 µM)	1.56 µg/mL (≈ 5.35 µM)	12.5 µg/mL (≈ 42.9 µM)	0.78 µg/mL (≈ 2.68 µM)	1.56 µg/mL (≈ 5.35 µM)	0.19 µg/mL (≈ 0.652 µM)	0.1 µg/mL (≈ 0.343 µM)	0.1 µg/mL (≈ 0.343 µM)	< 0.05 µg/mL	< 0.05 µg/mL					MIC [15]: 1.56 µg/mL (≈ 5.35 µM)
CSc1cccc(C2=C(C(=O)O)N3C(=O)[C@H]([C@@H](C)O)[C@H]3S2)c1 [Example 3-SCH3]	0.05 µg/mL (≈ 0.148 µM)	3.13 µg/mL (≈ 9.28 µM)	6.25 µg/mL (≈ 18.5 µM)	12.5 µg/mL (≈ 37 µM)	0.39 µg/mL (≈ 1.16 µM)	6.25 µg/mL (≈ 18.5 µM)	6.25 µg/mL (≈ 18.5 µM)	6.25 µg/mL (≈ 18.5 µM)	50 µg/mL (≈ 148 µM)	0.39 µg/mL (≈ 1.16 µM)	6.25 µg/mL (≈ 18.5 µM)	0.19 µg/mL (≈ 0.563 µM)	0.19 µg/mL (≈ 0.563 µM)	0.1 µg/mL (≈ 0.296 µM)	< 0.05 µg/mL	< 0.05 µg/mL	1.56 µg/mL (≈ 4.62 µM)				
CC(O)C1C(=O)N2C(C(=O)O)=C(c3ccc(C(N)=O)cc3)SC12 (stereo not shown) [Example 4-CONH2, 3-(4-aminocarbonylphenyl)-6-(1-hydroxyethyl)-7-oxo-4-thia-1-azabicyclo[3.2.0]hept-2-ene 2-carboxylic acid]	0.05 µg/mL (≈ 0.15 µM)	0.19 µg/mL (≈ 0.568 µM)		0.78 µg/mL (≈ 2.33 µM)	0.39 µg/mL (≈ 1.17 µM)	0.39 µg/mL (≈ 1.17 µM)	0.39 µg/mL (≈ 1.17 µM)		6.25 µg/mL (≈ 18.7 µM)	0.39 µg/mL (≈ 1.17 µM)		0.1 µg/mL (≈ 0.299 µM)	0.1 µg/mL (≈ 0.299 µM)	0.05 µg/mL (≈ 0.15 µM)	0.013 µg/mL (≈ 0.0389 µM)	0.013 µg/mL (≈ 0.0389 µM)	1.56 µg/mL (≈ 4.67 µM)	0.39 µg/mL (≈ 1.17 µM)	0.39 µg/mL (≈ 1.17 µM)	0.39 µg/mL (≈ 1.17 µM)	
C[C@@H](O)[C@H]1C(=O)N2C(C(=O)O)=C(c3cccc(NC=O)c3)S[C@H]12 [Example 3-NHCHO, 3-(3-formylaminophenyl)-6-(1-hydroxyethyl)-7-oxo-4-thia-l-azabicyclo[3.2.0]hept-2-ene 2-carboxylic acid]	0.1 µg/mL (≈ 0.299 µM)	0.39 µg/mL (≈ 1.17 µM)		1.56 µg/mL (≈ 4.67 µM)	0.39 µg/mL (≈ 1.17 µM)	0.39 µg/mL (≈ 1.17 µM)	0.78 µg/mL (≈ 2.33 µM)		12.5 µg/mL (≈ 37.4 µM)	0.39 µg/mL (≈ 1.17 µM)		0.19 µg/mL (≈ 0.568 µM)	0.19 µg/mL (≈ 0.568 µM)	0.1 µg/mL (≈ 0.299 µM)	< 0.025 µg/mL	< 0.025 µg/mL	1.56 µg/mL (≈ 4.67 µM)	0.78 µg/mL (≈ 2.33 µM)	0.39 µg/mL (≈ 1.17 µM)	0.39 µg/mL (≈ 1.17 µM)	
C[C@@H](O)[C@H]1C(=O)N2C(C(=O)O)=C(c3ccc(NC=O)cc3)S[C@H]12 [Example 4-NHCHO]	0.025 µg/mL (≈ 0.0748 µM)	0.19 µg/mL (≈ 0.568 µM)		0.78 µg/mL (≈ 2.33 µM)	0.19 µg/mL (≈ 0.568 µM)	0.39 µg/mL (≈ 1.17 µM)	0.39 µg/mL (≈ 1.17 µM)		6.25 µg/mL (≈ 18.7 µM)	0.19 µg/mL (≈ 0.568 µM)		0.1 µg/mL (≈ 0.299 µM)	0.1 µg/mL (≈ 0.299 µM)	0.05 µg/mL (≈ 0.15 µM)	< 0.013 µg/mL	< 0.013 µg/mL	0.78 µg/mL (≈ 2.33 µM)	0.39 µg/mL (≈ 1.17 µM)	0.39 µg/mL (≈ 1.17 µM)	0.39 µg/mL (≈ 1.17 µM)	
